{"source": "patent US10597388B2", "about": "“Pyridazinone herbicides” (FMC CORPORATION, priority 2014, dated 2020)", "test_in_all_cases": "Test D controlled growth environment herbicide test, pre- and postemergence", "type_in_all_cases": "in vivo", "key": {"[1]": {"test_system": "barley, spring (spring barley, Hordeum vulgare)", "method_in_brief": "(§1)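 Rating is visual, 0–100 scale (100 = complete control), made against untreated plants 14–21 d after treatment in controlled growth conditions. Postemergence sprays went onto 1- to 4-leaf plants in peat medium; preemergence sprays onto silt loam after sowing; formulation included a surfactant.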"}, "[2]": {"test_system": "oat, wild (wild oat, Avena fatua)", "method_in_brief": "as §1"}, "[3]": {"test_system": "galium (catchweed bedstraw, Galium aparine)", "method_in_brief": "as §1"}, "[4]": {"test_system": "buckwheat, wild (wild buckwheat, Polygonum convolvulus)", "method_in_brief": "as §1"}, "[5]": {"test_system": "wheat, winter (winter wheat, Triticum aestivum)", "method_in_brief": "as §1"}, "[6]": {"test_system": "field violet (Viola arvensis)", "method_in_brief": "as §1"}, "[7]": {"test_system": "Russian thistle (Salsola kali)", "method_in_brief": "as §1"}, "kochia (Kochia scoparia)": {"test_system": "kochia (Kochia scoparia)", "method_in_brief": "as §1"}, "[8]": {"test_system": "oilseed rape (Brassica napus)", "method_in_brief": "as §1"}, "[9]": {"test_system": "chickweed (common chickweed, Stellaria media)", "method_in_brief": "as §1"}, "[10]": {"test_system": "wheat, spring (spring wheat, Triticum aestivum)", "method_in_brief": "as §1"}, "[11]": {"test_system": "pigweed (Amaranthus retroflexus)", "method_in_brief": "as §1"}, "[12]": {"test_system": "canarygrass (Phalaris minor)", "method_in_brief": "as §1"}, "[13]": {"conditions": "Postemergence, 31 g ai/ha, scale 0 to 100 (0 no effect, 100 complete control)"}, "[14]": {"conditions": "Postemergence, 125 g ai/ha, visual rating on scale 0 (no effect) to 100 (complete control), 14 to 21 d"}, "[15]": {"conditions": "Postemergence, 250 g ai/ha, scale 0 to 100 (0 no effect, 100 complete control)"}, "[16]": {"conditions": "Preemergence, 62 g ai/ha, scale 0 to 100 (0 no effect, 100 complete control)"}, "[17]": {"conditions": "Preemergence, 250 g ai/ha, scale 0 to 100, 0 no effect, 100 complete control"}, "[18]": {"conditions": "postemergence, 62 g ai/ha, scale 0 to 100, 0 no effect, 100 complete control"}, "[19]": {"conditions": "Preemergence, 125 g ai/ha, scale 0 to 100 (0 no effect, 100 complete control)"}}, "data": [{"smiles": "Cc1ccc2sc(C)c(-c3c(OC(=O)OC(C)C)c(C)nn(C)c3=O)c2c1", "note": "[Compound 66]", "values": [{"measurement": "Barley, Spring plant response rating", "setting": "[1]; [13]", "value": 0}, {"measurement": "Plant response rating, Barley, Spring", "setting": "[1]; [14]", "value": 5}, {"measurement": "Plant response rating, Barley, Spring", "setting": "[1]; [15]", "value": 15}, {"measurement": "Plant response rating (scale of 0 to 100), Barley, Spring", "setting": "[1]; Preemergence, 31 g ai/ha", "value": 0}, {"measurement": "Plant response rating, Barley, Spring", "setting": "[1]; [16]", "value": 0}, {"measurement": "Plant response rating, Barley, Spring", "setting": "[1]; [17]", "value": 10}, {"measurement": "Plant response rating, Barley, Spring", "setting": "[1]; [18]", "value": 0}, {"measurement": "Oat, Wild plant response rating", "setting": "[2]; [13]", "value": 85}, {"measurement": "Plant response rating, Oat, Wild", "setting": "[2]; [14]", "value": 100}, {"measurement": "Plant response rating, Oat, Wild", "setting": "[2]; [15]", "value": 100}, {"measurement": "Plant response rating (scale of 0 to 100), Oat, Wild", "setting": "[2]; Preemergence, 31 g ai/ha", "value": 75}, {"measurement": "Plant response rating, Oat, Wild", "setting": "[2]; [16]", "value": 85}, {"measurement": "Plant response rating, Oat, Wild", "setting": "[2]; [19]", "value": 85}, {"measurement": "Plant response rating, Oat, Wild", "setting": "[2]; [17]", "value": 90}, {"measurement": "Plant response rating, Oat, Wild", "setting": "[2]; [18]", "value": 95}, {"measurement": "Galium plant response rating", "setting": "[3]; [13]", "value": 85}, {"measurement": "Plant response rating, Galium", "setting": "[3]; [14]", "value": 100}, {"measurement": "Plant response rating, Galium", "setting": "[3]; [15]", "value": 100}, {"measurement": "Plant response rating (scale of 0 to 100), Galium", "setting": "[3]; Preemergence, 31 g ai/ha", "value": 0}, {"measurement": "Plant response rating, Galium", "setting": "[3]; [16]", "value": 20}, {"measurement": "Plant response rating, Galium", "setting": "[3]; [19]", "value": 65}, {"measurement": "Plant response rating, Galium", "setting": "[3]; [17]", "value": 75}, {"measurement": "Plant response rating, Galium", "setting": "[3]; [18]", "value": 100}, {"measurement": "Buckwheat, Wild plant response rating", "setting": "[4]; [13]", "value": 95}, {"measurement": "Plant response rating, Buckwheat, Wild", "setting": "[4]; [14]", "value": 100}, {"measurement": "Plant response rating, Buckwheat, Wild", "setting": "[4]; [15]", "value": 100}, {"measurement": "Plant response rating (scale of 0 to 100), Buckwheat, Wild", "setting": "[4]; Preemergence, 31 g ai/ha", "value": 0}, {"measurement": "Plant response rating, Buckwheat, Wild", "setting": "[4]; [16]", "value": 0}, {"measurement": "Plant response rating, Buckwheat, Wild", "setting": "[4]; [19]", "value": 0}, {"measurement": "Plant response rating, Buckwheat, Wild", "setting": "[4]; [17]", "value": 0}, {"measurement": "Plant response rating, Buckwheat, Wild", "setting": "[4]; [18]", "value": 100}, {"measurement": "Wheat, Winter plant response rating", "setting": "[5]; [13]", "value": 0}, {"measurement": "Plant response rating, Wheat, Winter", "setting": "[5]; [14]", "value": 0}, {"measurement": "Plant response rating, Wheat, Winter", "setting": "[5]; [15]", "value": 0}, {"measurement": "Plant response rating (scale of 0 to 100), Wheat, Winter", "setting": "[5]; Preemergence, 31 g ai/ha", "value": 0}, {"measurement": "Plant response rating, Wheat, Winter", "setting": "[5]; [16]", "value": 0}, {"measurement": "Plant response rating, Wheat, Winter", "setting": "[5]; [19]", "value": 0}, {"measurement": "Plant response rating, Wheat, Winter", "setting": "[5]; [17]", "value": 0}, {"measurement": "Plant response rating, Wheat, Winter", "setting": "[5]; [18]", "value": 0}, {"measurement": "Field Violet plant response rating", "setting": "[6]; [13]", "value": 85}, {"measurement": "Plant response rating, Field Violet", "setting": "[6]; [14]", "value": 95}, {"measurement": "Plant response rating, Field Violet", "setting": "[6]; [15]", "value": 95}, {"measurement": "Plant response rating (scale of 0 to 100), Field Violet", "setting": "[6]; Preemergence, 31 g ai/ha", "value": 60}, {"measurement": "Plant response rating, Field Violet", "setting": "[6]; [16]", "value": 85}, {"measurement": "Plant response rating, Field Violet", "setting": "[6]; [19]", "value": 95}, {"measurement": "Plant response rating, Field Violet", "setting": "[6]; [17]", "value": 98}, {"measurement": "Plant response rating, Field Violet", "setting": "[6]; [18]", "value": 95}, {"measurement": "Russian Thistle plant response rating", "setting": "[7]; [13]", "value": 75}, {"measurement": "Plant response rating, Russian Thistle", "setting": "[7]; [14]", "value": 75}, {"measurement": "Plant response rating, Russian Thistle", "setting": "[7]; [15]", "value": 80}, {"measurement": "Plant response rating (scale of 0 to 100), Russian Thistle", "setting": "[7]; Preemergence, 31 g ai/ha", "value": 0}, {"measurement": "Plant response rating, Russian Thistle", "setting": "[7]; [16]", "value": 20}, {"measurement": "Plant response rating, Russian Thistle", "setting": "[7]; [19]", "value": 60}, {"measurement": "Plant response rating, Russian Thistle", "setting": "[7]; [17]", "value": 90}, {"measurement": "Plant response rating, Russian Thistle", "setting": "[7]; [18]", "value": 80}, {"measurement": "Kochia plant response rating", "setting": "kochia (Kochia scoparia); [13]", "value": 85}, {"measurement": "Plant response rating, Kochia", "setting": "kochia (Kochia scoparia); [14]", "value": 100}, {"measurement": "Plant response rating, Kochia", "setting": "kochia (Kochia scoparia); [15]", "value": 100}, {"measurement": "Plant response rating (scale of 0 to 100), Kochia", "setting": "kochia (Kochia scoparia); Preemergence, 31 g ai/ha", "value": 0}, {"measurement": "Plant response rating, Kochia", "setting": "kochia (Kochia scoparia); [16]", "value": 15}, {"measurement": "Plant response rating, Kochia", "setting": "kochia (Kochia scoparia); [19]", "value": 75}, {"measurement": "Plant response rating, Kochia", "setting": "kochia (Kochia scoparia); [17]", "value": 85}, {"measurement": "Plant response rating, Kochia", "setting": "kochia (Kochia scoparia); [18]", "value": 95}, {"measurement": "Oilseed Rape plant response rating", "setting": "[8]; [13]", "value": 0}, {"measurement": "Plant response rating, Oilseed Rape", "setting": "[8]; [14]", "value": 65}, {"measurement": "Plant response rating, Oilseed Rape", "setting": "[8]; [15]", "value": 75}, {"measurement": "Plant response rating (scale of 0 to 100), Oilseed Rape", "setting": "[8]; Preemergence, 31 g ai/ha", "value": 35}, {"measurement": "Plant response rating, Oilseed Rape", "setting": "[8]; [16]", "value": 35}, {"measurement": "Plant response rating, Oilseed Rape", "setting": "[8]; [19]", "value": 35}, {"measurement": "Plant response rating, Oilseed Rape", "setting": "[8]; [17]", "value": 35}, {"measurement": "Plant response rating, Oilseed Rape", "setting": "[8]; [18]", "value": 20}, {"measurement": "Chickweed plant response rating", "setting": "[9]; [13]", "value": 75}, {"measurement": "Plant response rating, Chickweed", "setting": "[9]; [14]", "value": 100}, {"measurement": "Plant response rating, Chickweed", "setting": "[9]; [15]", "value": 100}, {"measurement": "Plant response rating (scale of 0 to 100), Chickweed", "setting": "[9]; Preemergence, 31 g ai/ha", "value": 90}, {"measurement": "Plant response rating, Chickweed", "setting": "[9]; [16]", "value": 100}, {"measurement": "Plant response rating, Chickweed", "setting": "[9]; [19]", "value": 100}, {"measurement": "Plant response rating, Chickweed", "setting": "[9]; [17]", "value": 100}, {"measurement": "Plant response rating, Chickweed", "setting": "[9]; [18]", "value": 85}, {"measurement": "Wheat, Spring plant response rating", "setting": "[10]; [13]", "value": 0}, {"measurement": "Plant response rating, Wheat, Spring", "setting": "[10]; [14]", "value": 0}, {"measurement": "Plant response rating, Wheat, Spring", "setting": "[10]; [15]", "value": 5}, {"measurement": "Plant response rating (scale of 0 to 100), Wheat, Spring", "setting": "[10]; Preemergence, 31 g ai/ha", "value": 0}, {"measurement": "Plant response rating, Wheat, Spring", "setting": "[10]; [16]", "value": 0}, {"measurement": "Plant response rating, Wheat, Spring", "setting": "[10]; [19]", "value": 5}, {"measurement": "Plant response rating, Wheat, Spring", "setting": "[10]; [17]", "value": 20}, {"measurement": "Plant response rating, Wheat, Spring", "setting": "[10]; [18]", "value": 0}, {"measurement": "Pigweed plant response rating", "setting": "[11]; [13]", "value": 95}, {"measurement": "Plant response rating, Pigweed", "setting": "[11]; [14]", "value": 100}, {"measurement": "Plant response rating, Pigweed", "setting": "[11]; [15]", "value": 100}, {"measurement": "Plant response rating (scale of 0 to 100), Pigweed", "setting": "[11]; Preemergence, 31 g ai/ha", "value": 30}, {"measurement": "Plant response rating, Pigweed", "setting": "[11]; [16]", "value": 100}, {"measurement": "Plant response rating, Pigweed", "setting": "[11]; [19]", "value": 100}, {"measurement": "Plant response rating, Pigweed", "setting": "[11]; [17]", "value": 100}, {"measurement": "Plant response rating, Pigweed", "setting": "[11]; [18]", "value": 100}, {"measurement": "Canarygrass plant response rating", "setting": "[12]; [13]", "value": 55}, {"measurement": "Plant response rating, Canarygrass", "setting": "[12]; [14]", "value": 70}, {"measurement": "Plant response rating, Canarygrass", "setting": "[12]; [15]", "value": 85}, {"measurement": "Plant response rating (scale of 0 to 100), Canarygrass", "setting": "[12]; Preemergence, 31 g ai/ha", "value": 25}, {"measurement": "Plant response rating, Canarygrass", "setting": "[12]; [16]", "value": 80}, {"measurement": "Plant response rating, Canarygrass", "setting": "[12]; [19]", "value": 85}, {"measurement": "Plant response rating, Canarygrass", "setting": "[12]; [17]", "value": 95}, {"measurement": "Plant response rating, Canarygrass", "setting": "[12]; [18]", "value": 65}]}]}
